One data set addresses T1, MtrR-mtrCDE promoter (Neisseria gonorrhoeae, UniProt P39897).
T1 construct: nearly all 210 residues of each protomer observed, with the exception of residues 1 through 7; hexahistidine tag (thrombin-cleavable) (cleaved yes); made in house
The format is biochemical. As to conditions: for Fold increase in Kd: versus no bile salt. As to the method:
Thus, to rule out any effect of alkaline pH on MtrR-DNA interactions, we buffered the CAPS used in the FP assay to pH 8.0 before testing its effect on DNA binding.
Fluorescence polarization-based DNA binding experiments were performed with a Panvera Beacon 2000 fluorescence polarization system (Invitrogen) utilizing 5′-fluorescein-labeled DNA. Polarization (P) of such 5′-labeled DNA increases as a function of protein binding, and equilibrium dissociation constants are determined by curve fitting the values of millipolarization (P × 10^−3) units against the protein concentration. To determine the effects of various ligands on MtrR-DNA binding, 1 nM 5′-fluoresceinated oligodeoxynucleotide duplexes containing the mtrC operator site in 1 ml binding buffer (20 mM Tris HCl [pH 8.0], 100 mM NaCl, and 2.5% glycerol) were titrated against increasing concentrations of purified MtrR in the presence or absence of the indicated concentrations of bile salt, and the resulting changes in polarization were measured. All the samples were excited at 490 nm, and their polarized emissions were measured at 530 nm. All the data were plotted using Kaleidagraph (Synergy Software) and Prism (GraphPad Software), and the resulting plots were fitted to the following equation: P = {(Pbound − Pfree)[protein]/(KD + [protein])} + Pfree, where P is the polarization measured at a given protein concentration, Pfree is the initial polarization of the free ligand, Pbound is the maximum polarization of specifically bound ligand, KD is the equilibrium dissociation constant, and [protein] is the protein concentration. Nonlinear least-squares analysis was used to determine Pbound, and Kd. The reported binding constants are the average values from at least three independent experimental measurements.

For data set [1] the following is noted: CAPS buffer; no reference given; cited from earlier work.
Another data set addresses T2, MtrR-DNA complex (Neisseria gonorrhoeae, UniProt P39897).
T2 construct: nearly all 210 residues of each protomer observed, with the exception of residues 1 through 7; hexahistidine tag (thrombin-cleavable) (cleaved yes); made in house
The format is biochemical. As to conditions: EMSA, wild-type MtrR, mtrC promoter oligoduplex. (In general: A gel shift assay detects complexes by their altered migration in electrophoresis.)

The subject of data set [2] is mtrCp-lacZ in FA19 (wild type). In words: β-Galactosidase assay of mtrCp-lacZ fusion, strain FA19. The format is cell-based, Neisseria gonorrhoeae. From the text: (§1) To determine if sublethal concentrations of bile salts could relieve MtrR-mediated repression of mtrC (and, by inference, the mtrCDE operon), a translational fusion of the promoter region of mtrC to lacZ was used. This fusion system was made in the wild-type (FA19) background ([41]) and cloned into mtrR deletion mutant strain JF1. Using the mtrCp-lacZ fusion, the β-galactosidase activity of the strains grown in the presence or absence of the bile salt chenodeoxycholate, taurodeoxycholate, or glycocholate was measured. The β-galactosidase levels were determined from strains grown overnight on GC agar supplemented with the bile salt at concentrations 4-fold below their specific MICs to ensure that the concentration of each bile salt was in the same biological range (the bile salt concentrations are listed in Table 2).
N. gonorrhoeae strains FA19 (wild type) and JF1 (FA19 ΔmtrR) containing a translational mtrCp-lacZ fusion with the proAB locus were used to assess the ability of bile salts to induce mtrC expression; the construction of these strains has been described previously ([41]). The MIC of bile salts for each strain used in the β-galactosidase assay was determined using a 2-fold agar dilution method ([32]). Gonococci were grown overnight on GC agar (Difco Laboratories) supplemented with a bile salt (glycocholate, chenodeoxycholate, or taurodeoxycholate) at concentrations that were 4-fold below the MIC. After overnight growth at 37°C under 3.8% (vol/vol) CO2, the bacteria were scraped from the agar plate, resuspended in 1 ml phosphate-buffered saline (pH 7.4), and lysed by freeze-thawing three times, after which the cell debris was pelleted by centrifugation. The lysate was then used to determine β-galactosidase levels as described previously ([63]). All experiments were performed in triplicate with at least three biological replicates conducted on different days.

For data set [3], the system named is mtrCp-lacZ in JF1 (FA19 ΔmtrR). In kind it is cell-based, Neisseria gonorrhoeae.
Source text: as §1
N. gonorrhoeae strains FA19 (wild type) and JF1 (FA19 ΔmtrR) containing a translational mtrCp-lacZ fusion with the proAB locus were used to assess the ability of bile salts to induce mtrC expression; the construction of these strains has been described previously ([41]). The MIC of bile salts for each strain used in the β-galactosidase assay was determined using a 2-fold agar dilution method ([32]). […]

For a further data set, the target named is T3, MtrR (Neisseria gonorrhoeae, UniProt P39897).
T3 construct: A codon optimized gene of MtrR was synthesized by GenScript and cloned into the; hexahistidine tag with TEV protease site (N, cleaved yes); made in house
T3 sequence (P39897 whole entry): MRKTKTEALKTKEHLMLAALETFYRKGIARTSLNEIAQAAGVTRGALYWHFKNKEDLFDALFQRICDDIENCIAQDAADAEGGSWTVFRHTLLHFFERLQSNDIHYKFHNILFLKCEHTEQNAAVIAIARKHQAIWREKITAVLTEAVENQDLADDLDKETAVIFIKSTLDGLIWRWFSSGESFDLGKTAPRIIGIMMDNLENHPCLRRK
In words: Isothermal titration calorimetry, wild-type MtrR with bile salts. The format is binding. As to conditions: ITC, 25°C, 20 μM MtrR in cell, 250 μM ligand in syringe. The protocol:
Purified MtrR was dialyzed extensively against buffer containing 20 mM Tris [pH 8.0], 200 mM NaCl, 10% glycerol, and 1 mM TCEP overnight at 4°C. The stock solutions and the necessary dilutions of the bile salts were prepared using this dialysis buffer. Titrations with 20 μM MtrR in the cell and 250 μM ligand in the syringe were performed using a VP-ITC microcalorimeter (Microcal Inc.). All measurements were conducted at 25°C with a stirring speed of 200 rpm. After subtraction of germane blank data, the titration data were analyzed using the program ORIGIN 5.0.
Protein purification for Isothermal Titration Calorimetry experiments and mutant […]
A codon optimized gene of MtrR was synthesized by GenScript and cloned into the pMCSG7 vector in- frame with the N-terminal Hexa- histidine tag and tobacco etch virus (TEV) protease cleavage site. This construct was used as the template for site- directed mutagenesis and to generate wild- type data in supplemental f igures 5-6 and Isothermal Titration Calorimetry data. This protein was overexpressed and purified as described in the “Materials and Methods” of the document, except the he xa -histidine tag MtrR was cleaved by TEV protease following NiNTA affinity chromatography. Cleaved MtrR was purified from tagged MtrR and cleaved hexa- histidine tag by Ni- NTA aff inity chromatography and then further purified by size exclusion chromatography (S200).
(In ITC the heat of successive injections is recorded.)

Read-outs that look alike come from different tables or passages of the source.

T1 sequence (P39897 whole entry): as above
T2 sequence (P39897 whole entry, one chain of several): as the sequence (P39897 whole entry) above
Protocol for MtrR-DNA complex: To test the hypothesis that these bile salts directly bind to MtrR and potentially derepress gene expression by interfering with the DNA binding activity of MtrR, MtrR-mtrC promoter interactions were tested in the presence and absence of different concentrations of several bile salts. […] It is important to note that this is a competition assay that, due to its experimental design, requires the use of 3 μM DNA and 4 to 10 μM MtrR dimer. Consequently, this means that ∼99.9% of all DNA is MtrR bound.
Complementary oligodeoxynucleotides containing the MtrR binding site from the mtrC promoter (top strand, 5′-[sequence]-3′; an unusual pseudo-direct repeat is underlined) were annealed by heating an equimolar mixture of the top and bottom strands at 95°C for 5 min, followed by slow cooling to room temperature. Binding reactions were carried out in 20-μl volumes of binding buffer (20 mM Tris [pH 8.0], 200 mM NaCl, 10% glycerol, and 1 mM TCEP) containing 1 μg oligoduplex, 1 μg poly(dI-dC), and 4 to 10 μg MtrR. After a 20-minute incubation at room temperature, the preformed complex was incubated with or without various concentrations of selected bile salts at room temperature for an additional 10 min. […] The gels were stained with ethidium bromide and visualized and analyzed with an Alpha Innotech gel documentation instrument. The intensities of free DNA were measured with ImageJII ([61], [62]).

In general, pKa refers to the negative logarithm of the acid dissociation constant. On to `O=S(=O)(O)CCCNC1CCCCC1` [CAPS, N-cyclohexyl-3-aminopropanesulfonic acid], for which, at MtrR-mtrCDE promoter (10 mM CAPS, pH 8.0), the “Fold reduction of MtrR affinity for the mtrC operator sequence” value is over 300 fold. Further, in data set [1], the pKa was about 10.5.

Take `C[C@H](CCC(=O)NCC(=O)O)[C@H]1CC[C@H]2[C@@H]3[C@H](O)C[C@@H]4C[C@H](O)CC[C@]4(C)[C@H]3C[C@H](O)[C@]12C` [Glycocholate, glycocholate]: the “Concentration that disrupts the preformed MtrR-DNA complex” value on MtrR-DNA complex is on record as over 40 mM. The “MtrR-dependent derepression of the mtrC promoter” value in data set [2] (FA19 compared with ΔmtrR strain JF1, sublethal bile salt) is on record as “failed to exhibit MtrR-dependent derepression”. The “Fold increase of mtrCp-lacZ activity” value in data set [2] (strain FA19, grown on GC agar with bile salt 4-fold below MIC versus normal agar, mM concentration in parentheses in the cell) is 1.43 (0.48); in data set [3], 2.11 (0.96). For the same compound, the “Kd of bile salt binding to WT MtrR” value at MtrR is given as “no measurable binding”. In addition, the “Fold increase in Kd” value at MtrR-mtrCDE promoter (1 mM bile salt) is given as 1.2; at MtrR-mtrCDE promoter (1 mM bile salt, listed as glycocholate), “no effect”; on MtrR-mtrCDE promoter (5 mM bile salt) it was 5; at MtrR-mtrCDE promoter (10 mM bile salt), 6.

Values taken from PMC6755732, “Structural, Biochemical, and In Vivo Characterization of MtrR-Mediated Resistance to Innate Antimicrobials by the Human Pathogen Neisseria gonorrhoeae” (Journal of Bacteriology, 2019).
